Measured values as given in patent US20060035867A1, “Methods of treating cancer and the pain associated therewith using endothelin antagonists” (priority 2000, published 2006).

Legend:
[1] = system: prostate specific antigen (PSA); test: Prostate Specific Antigen Level Assay (Chiron ACS: Centaur PSA2, serum of treated subjects); assay type: in vivo, human; settings: hormone refractory prostate cancer subjects; 2.5 mg or 10 mg ABT-627 vs placebo; AUC in FIG. 2
Experimental: (§1) Studies were performed on male subjects with asymptomatic hormone refractory prostate cancer with rising PSA levels and on male subjects with symptomatic hormone refractory prostate cancer with rising PSA levels and pain. Subjects in the phase II studies had castrate levels of testosterone, either due to pharmacologic intervention, via leuprolide (Lupron®) or goserelin (Zoladex®), or via surgical castration. Subjects received ABT-627 or placebo. The following tests were conducted:
(§2) A number of recognized or putative biochemical markers of disease progression have been used to monitor treatment of individuals with prostate cancer. Among these markers are serum Prostate Specific Antigen (PSA), serum acid Phosphatase, Interleukin-6, and Chromagranin-A. As currently accepted, favorable treatment is marked by a decrease or slower rate of increase for PSA, acid phosphatase, and Interleukin-6, while a favorable response is marked by an increase in Chromagranin-A. […]
The effect of ABT-627 administeration on prostate specific antigen (PSA) levels in human subject serum samples was determined using the procedure described in the Chiron Diagnostics ACS: Centaur PSA2 Assay. […]
Briefly, a subject population was treated with a placebo or 2.5 mg or 10 mg of ABT-627. […] A direct relationship exists between the amount of PSA present in the patient sample and the RLU's (relative light units) detected.

Acid Phosphatase (ACP) = test: Acid Phosphatase Levels (Sigma Diagnostics ACP Procedure No. 435, serum of treated subjects); assay type: in vivo, human; settings: hormone refractory prostate cancer subjects, ABT-627 vs placebo, AUC in FIG. 7 (10 mg)
Experimental: as §1
A number of recognized or putative biochemical markers of disease progression have been used to monitor treatment of individuals with prostate cancer. […]
The effect of ABT-627 administeration on Acid Phosphatase levels in human subject serum samples was determined at Quintiles Laboratories using the chemical test described in Sigma Diagnostics Acid Phosphatase (ACP) Procedure No. 435. […] The alpha-naphthol immediately reacts with fast red TR salt to produce a yellow chromophore with an absorbance maximum at 405 nm. The rate of increase in absorbance at 405 nm is directly proportional to ACP activity in the sample. ACP activity was determined in the presence and absence of L-tartrate, the difference being attributed to prostatic acid phosphatase activity. […]

Chromagranin-A = Chromagranin-A Levels (two site chemiluminescence assay, serum of treated subjects); assay type: in vivo, human; settings: hormone refractory prostate cancer subjects, 2.5 mg/day of ABT-627, AUC in FIG. 8
Experimental: as §1, §2
The effect of ABT-627 adminstration on Chromagranin-A levels in human serum samples was determined by proprietary assay conducted at the Nichols Institute. […] The bound, acridinium-labeled material produces light that is detected in a luminometer after addition of triggering agents. […]

Interleukin-6 = Interleukin-6 Levels (sandwich immunoassay, serum of treated subjects); assay type: in vivo, human; settings: hormone refractory prostate cancer subjects, 2.5 mg or 10 mg ABT-627 vs placebo, AUC FIG. 1
Experimental: as §1, §2
The effect of ABT-627 adminstration on Interleukin-6 levels in human serum samples was determined at Quintiles Laboratories using a sandwich immunoassay. […] After incubation, the wells were washed, and the bound enzymatic activity was measured using a chromogenic substrate. […]

[2] = system: male subjects with hormone refractory prostate cancer; test: Bone scan (Tc-99m phosphonate, bone scan index); assay type: in vivo, human; settings: 10 mg ABT-627 versus placebo, FIG. 6
Experimental: as §1
Bone scans were performed with an NDA approved, Tc-99m phosphonate type radiopharmaceutical. […] Each site was evaluated against a confidence score of 1 to 5, where 1 is negative, 2 is probably negative, 3 is equivocal, 4 is probably positive, and 5 is definitely positive. […] In addition, in a blinded study, a reference nuclear medicine physician interpreted the bone scans quantitatively as follows: the percent of involved bone was estimated for each individual bone, and the individual bone involvement was summed to calculate a global percent bone scan index (BSI). […]
Bone scans were conducted on each subject on day one of the study, and on the final day of the study, and the changes from baseline in bone scan index scores were analysed by mean change and mean percent change, adjusting for baseline characteristics as co-variates using SAS version XXX software.

[3] = system: male subjects with symptomatic hormone refractory prostate cancer with rising PSA levels and pain; test: Visual Analog Scale (VAS) pain assessment; assay type: in vivo, human; settings: 2.5 mg or 10 mg ABT-627 vs placebo, independent of the effects of morphine, AUC in FIG. 3
Experimental: as §1, with “conducted: […]” for “conducted:”
During the course of the study, pain asessments were done daily, at bedtime, by the subject. […] The log also contained a table on which was recorded all daily pain medication consumed by the patient. […] Clinical personnel who received the logs measured the score by measuring the distance (in mm) from the “no pain” end mark to the point where the subject's line crossed the VAS line. […]
The weekly VAS scores were calculated excluding the lowest and highest score for each week and averaging the remaining five scores. […]
Weekly VAS scores are examined using a longitudinal analysis method to explore trends over time. The duration of the response, defined as the time from baseline to the last weekly assessment for which the responder definition was satisfied, was analyzed using the Kaplan-Meier methodology and logrank test.

[4] = system: bone alkaline phosphatase (BAP); test: Bone Alkaline Phosphatase levels (Alkphase-B assay); assay type: in vivo, human; settings: hormone refractory prostate cancer subjects; 10 mg ABT-627 vs placebo; AUC in FIG. 5
Experimental: as §1
(§3) Markers of osteoblastic activity were assessed using urine samples. Bone markers include bone alkaline phosphatase (BAP), deoxypridinoline, and N-telopeptide of Type I collagen. Blood samples were collected prior to dosing on Day 1, Day 42, Day 84, Day 168, and every 28 days after Day 168, with a final collection on the last day of the study.
Bone Alkaline Phosphatase levels were determined using the bone-specific Alkphase-B® assay published by Metra Biosystems (Mountain View, Calif.).

[5] = system: Crosslinked N-telopeptide (ICTP) of type I collagen; test: Crosslinked N-Telopeptide Levels (DiaSorin ICTP radioimmunoassay); assay type: in vivo; settings: hormone refractory prostate cancer subjects; 10 mg ABT-627 vs placebo; human serum; AUC in FIG. 4
Experimental: as §1, §3
Cross-linked N-telopeptide levels were determined using the DiaSorin (Stillwater, Minn.) assay for the quantitative determination of carboxyterminal cross-linked telopeptide of type I collagen (ICTP) in human serum by equilibrium radioimmunoassay (RIA). Briefly, samples were incubated with the ^125I ICTP tracer and ICTP primary antibody for 2 hours at 37° C. Following the 2 hour incubation, a pre-precipitated second antibody complex was added to separate the bound from free tracer. […] The bound tracer in the pellet was counted with a gamma counter. […]

## CCCCN(CCCC)C(=O)CN1C[C@H](c2ccc3c(c2)OCO3)[C@@H](C(=O)O)[C@@H]1c1ccc(OC)cc1 [ABT-627]
[1]
  rate of increase of PSA in the serum samples: decreases
Acid Phosphatase (ACP)
  average change from baseline for acid phosphatase: decreased
  rate of increase for acid phosphatase: decreased
Chromagranin-A
  average change from baseline for Chromagranin-A: higher
Interleukin-6
  average change in baseline for Interleukin-6: lower
[2]
  proportion of total skeletal involvement (bone scan): decrease in the proportion of total skeketal involvement
[3]
  VAS scores (pain): decrease in pain
[4]
  BAP levels: decreased
[5]
  Crosslinked N-telopeptide levels: decreased
